≈ marks a conversion by molar mass, not a printed value.

Data on eleven compounds can be found in paper PMC12305296, “Repurposing of FDA‐Approved Drugs to Disrupt Iron Uptake in Mycobacterium abscessus: Targeting Salicylate Synthase as a Novel Approach” (Chemical Biology & Drug Design, 2025).

The target in test [1] is T1, recombinant Mab‐SaS (Mycobacteroides abscessus, UniProt B1MAQ5). Description: Mab‐SaS enzyme inhibition, direct fluorometric assay. In kind it is biochemical, Mycobacterium abscessus. As to conditions: for remaining activity at 100 µM: read-out: residual activity at 100 μM (%); for Ki: steady‐state kinetics, competitive inhibition equation; for mode of inhibition towards CHO: reciprocal plots of steady‐state kinetics; for inhibition at 100 µM: read-out: inhibition of Mab‐SaS at 100 μM. On the procedure:
The recombinant Mab‐SaS was expressed in E. coli and purified as previously reported (Mori et al. [2023]). Enzyme activity was determined by a direct fluorometric assay (Mori et al. [2020]). Briefly, the assays were performed in 400 μL of 50 mM potassium phosphate pH 8.0, containing 5 mM MgCl2, and 1–2 μM Mab‐SaS. The reaction was started by the addition of CHO and monitored using a PerkinElmer LS3 fluorimeter (Ex. λ = 305 nm, Em. λ = 410 nm; PerkinElmer, Waltham, MA, USA).
The compounds identified by the in silico investigations were purchased from CymitQuimica S.L. and dissolved at a concentration of 20 mM in dimethylsulfoxide (DMSO) or water, according to their solubility. Specifically, gentamycin, cytidine, amifostine, and hydroxystilbamidine were dissolved in water, while esomeprazole, fostamatinib, S‐adenosyl‐L‐homocysteine, norepinephrine, labetalol, levolansoprazole, and nebivolol were dissolved in DMSO.
The inhibitory activity of the candidates was initially evaluated at a final concentration of 100 μM, using a subsaturating concentration of the substrate (CHO) of 70 μM. […] IC50 was calculated by measuring enzymatic activity in the presence of different compound concentrations, using (Equation 1), where A[I] is the enzyme activity at inhibitor concentration [I] and A[0] is the enzyme activity without inhibitor. (1) AI=A0×1−I/I+IC50
The inhibition constant values (K i) were determined by assaying Mab‐SaS at different substrate and compound concentrations and using an adapted equation for competitive inhibition (Equation 2) with GraphPad 8.0 software. (2) v=VmaxS/S+Km1+I/Ki

For test [2], the target named is T1, recombinant Mab‐SaS. Description: PAINS control assays (BSA, Triton X‐100, DTT) on Mab‐SaS inhibition. It is filed as biochemical, Mycobacterium abscessus. As to conditions: for inhibition in presence of BSA and Triton X‐100 (aggregation check): 0.1 mg/mL BSA or 0.01% (v/v) Triton X‐100; for effect of DTT on inhibition (cysteine reactivity check): 100 mM DTT.
Test [3] relates to M. smegmatis mc^2155. Nature of the test: REMA antimycobacterial assay in iron‐limiting chelated Sauton's medium. It is filed as cell-based. The settings on record: Mycolicibacterium smegmatis, iron‐limiting conditions. As for the experimental part: Antimycobacterial activity of the best compounds was evaluated by REMA assay in iron‐limiting chelated Sauton's medium on M. smegmatis MC^2 155 (Siegrist et al. [2009]; Mehra and Philips [2014]). This microorganism is widely used as a non‐pathogenic model for Mab, since it shares similar biological characteristics and replicates more rapidly than other mycobacteria. By using this non‐pathogenic microorganism, we could efficiently study processes related to Mab, while minimizing the hazards and technical difficulties of working directly with a pathogenic strain.

T1 sequence (B1MAQ5 entry or part of it): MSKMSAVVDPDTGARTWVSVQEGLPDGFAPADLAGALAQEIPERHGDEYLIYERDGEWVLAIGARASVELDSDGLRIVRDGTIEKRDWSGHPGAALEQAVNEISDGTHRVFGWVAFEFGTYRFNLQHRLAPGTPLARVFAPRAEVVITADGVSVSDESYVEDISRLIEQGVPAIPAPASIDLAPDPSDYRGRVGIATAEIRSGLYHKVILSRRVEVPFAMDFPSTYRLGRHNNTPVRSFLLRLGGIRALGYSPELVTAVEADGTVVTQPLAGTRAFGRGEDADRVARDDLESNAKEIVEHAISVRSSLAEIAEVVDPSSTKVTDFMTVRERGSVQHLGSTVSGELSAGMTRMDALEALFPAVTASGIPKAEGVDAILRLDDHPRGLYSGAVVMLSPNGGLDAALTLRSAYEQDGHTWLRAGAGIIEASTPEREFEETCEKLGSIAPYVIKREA

For the compound `NCCCNCCSP(=O)(O)O` [Amifostine], in test [1], the remaining activity at 100 µM was 78.1 ± 3.2%.
`Nc1ccn([C@@H]2O[C@H](CO)[C@@H](O)[C@H]2O)c(=O)n1` [Cytidine]: the remaining activity at 100 µM in test [1] came to 88.8 ± 2.5%.
With `COc1ccc2nc([S@@+]([O-])Cc3ncc(C)c(OC)c3C)[nH]c2c1` [Esomeprazole], in test [1], the IC50 was determined as 13.6 ± 1.1 µM, the Ki was 3.7 ± 0.4 µM, the remaining activity at 100 µM worked out at 3.3 ± 1.7% and the “mode of inhibition towards CHO” value is “competitive”. Also, the “inhibition of Mab‐SaS at 100 μM” value in test [1] (100 μM compound, 70 μM CHO) is given as “completely blocked the enzymatic activity”. Moreover, in test [2], the “inhibition in presence of BSA and Triton X‐100 (aggregation check)” value (from here on “inhibition in presence”) is “inhibited the enzyme”; the “effect of DTT on inhibition (cysteine reactivity check)” value (shortened to “effect of DTT on inhibition”) is reported as “no impact on the inhibition”.
Take `COc1cc(Nc2ncc(F)c(Nc3ccc4c(n3)N(COP(=O)(O)O)C(=O)C(C)(C)O4)n2)cc(OC)c1OC` [Fostamatinib]: in test [1], the IC50 is 21 ± 1.3 µM, the Ki worked out at 11.7 ± 0.7 µM and the “mode of inhibition towards CHO” value is on record as “competitive”. The “inhibition of Mab‐SaS at 100 μM” value in test [1] (100 μM compound, 70 μM CHO) was “completely blocked the enzymatic activity”. For the same compound, the “residual activity at 100 μM (%)” value in test [1] (100 μM compound, 70 μM CHO, Mean ± SD of three experiments) is listed as 11.6 ± 0.7%. Moreover, in test [2], the “inhibition in presence” value is listed as “inhibited the enzyme”; the “effect of DTT on inhibition” value was “no impact on the inhibition”.
For the compound `CNC(C)C1CCC(N)C(OC2C(N)CC(N)C(OC3OCC(C)(O)C(NC)C3O)C2O)O1` (stereo not shown) [Gentamycin], the “inhibition of Mab‐SaS at 100 μM” value in test [1] (100 μM compound, 70 μM CHO) was “did not exhibit any inhibitory effect”. For the same compound, in test [1], the remaining activity at 100 µM worked out at 98.8 ± 5.7%.
For the compound `N=C(N)c1ccc(/C=C/c2ccc(C(=N)N)cc2O)cc1` [Hydroxystilbamidine], in test [1], the IC50 is 11.5 ± 1.1 µM, the Ki is 5.4 ± 0.5 µM, the remaining activity at 100 µM amounted to 0.5 ± 0.3% and the “mode of inhibition towards CHO” value is reported as “competitive”. Further, in test [1] (100 μM compound, 70 μM CHO), the “inhibition of Mab‐SaS at 100 μM” value was “completely blocked the enzymatic activity”. Further, the MIC in test [3] stood at 250 µM (≈ 70.1 µg/mL). In addition, in test [2], the “inhibition in presence” value is on record as “inhibited the enzyme”; the “effect of DTT on inhibition” value is given as “no impact on the inhibition”.
Regarding `CC(CCc1ccccc1)NCC(O)c1ccc(O)c(C(N)=O)c1` (stereo not shown) [Labetalol], in test [1], the inhibition at 100 µM is around 53% and the remaining activity at 100 µM came to 47 ± 2.1%.
For `Cc1c(OCC(F)(F)F)ccnc1C[S@+]([O-])c1nc2ccccc2[nH]1` [Levolansoprazole], in test [1], the inhibition at 100 µM is around 37% and the remaining activity at 100 µM is 62.8 ± 1.7%.
Take `OC(CNCC(O)C1CCc2cc(F)ccc2O1)C1CCc2cc(F)ccc2O1` (stereo not shown) [Nebivolol]: the remaining activity at 100 µM in test [1] is 82.3 ± 1.3%.
For the compound `NC[C@H](O)c1ccc(O)c(O)c1` [Norepinephrine], in test [1], the inhibition at 100 µM was around 24% and the remaining activity at 100 µM was 75.5 ± 1.4%.
Consider `Nc1ncnc2c1ncn2[C@@H]1O[C@H](CSCC[C@H](N)C(=O)O)[C@@H](O)[C@H]1O` [S‐adenosyl‐L‐homocysteine], for which the remaining activity at 100 µM in test [1] is 102 ± 3.8%.

One may read the IC50 as the concentration that gives 50% inhibition. By Ki is commonly meant a dissociation constant, usually derived from enzyme kinetics or from competition with a known ligand. One may read the residual activity as the activity still measured, relative to the control. The MIC is the smallest concentration in the dilution series that meets the test's criterion for growth inhibition. A low value points to inhibition by little substance. Usually inhibition stands for the relative decrease from the control value, in per cent.
